Measurements published in ChEMBL document CHEMBL1143518, “Binding of isotryptamines and indenes at h5-HT6 serotonin receptors” (Bioorg Med Chem Lett, 2005).

Target: 5-hydroxytryptamine receptor 6 (Homo sapiens, UniProt P50406)
Assay: Binding affinity against human 5-Hydroxytryptamine 6 receptor expressed in HEK293 cells using [3H]LSD done for 90 minutes at pH 7.4 at room temperature
Format: cell-based

Chain of 5-hydroxytryptamine receptor 6 (P50406 whole entry): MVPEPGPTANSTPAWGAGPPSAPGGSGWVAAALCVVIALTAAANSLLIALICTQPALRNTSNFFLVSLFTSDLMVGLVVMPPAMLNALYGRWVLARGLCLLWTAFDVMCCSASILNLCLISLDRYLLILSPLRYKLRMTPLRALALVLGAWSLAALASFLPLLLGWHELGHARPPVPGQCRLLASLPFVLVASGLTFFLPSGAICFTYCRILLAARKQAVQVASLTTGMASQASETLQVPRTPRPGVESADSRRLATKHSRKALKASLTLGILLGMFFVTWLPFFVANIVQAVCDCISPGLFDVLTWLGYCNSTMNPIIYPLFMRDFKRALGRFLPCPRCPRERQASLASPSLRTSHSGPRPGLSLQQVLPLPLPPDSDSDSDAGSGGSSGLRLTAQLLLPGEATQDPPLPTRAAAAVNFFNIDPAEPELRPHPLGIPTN

| Compound | Ki [nM] |
| --- | --- |
| Nc1ccc(Cc2c[nH]c3ccccc23)cc1 | 2530 |
| Nc1ccc(CC2CCc3ccccc32)cc1 (configuration not stated) | 6100 |
| Nc1ccc(SC2CCc3ccccc32)cc1 (configuration not stated) | 4200 |
| CNCCC1=CC(Cc2ccccc2)c2ccccc21 (configuration not stated) | 3 |
| CN(C)CCn1cc(Cc2ccc(N)cc2)c2ccccc21 | 50 |
| CN(C)CCC1=C/C(=C\c2ccccc2)c2ccccc21 | 57 |
| Nc1ccc(/C=C2\C=Cc3ccccc32)cc1 | 640 |
| Nc1ccc(CC2=CCc3ccccc32)cc1 | 11800 |
| Nc1ccc(CC2C=Cc3ccccc32)cc1 (configuration not stated) | 4470 |
| CNCCC1=CC(CCc2ccccc2)c2ccccc21 (configuration not stated) | 100 |
| CN(C)CCc1cn(CCc2ccccc2)c2ccccc12 | 12 |
| Nc1ccc(S(=O)(=O)C2CCc3ccccc32)cc1 (configuration not stated) | 740 |
